Tests used:
Format in all cases: cell-based
Kir1.1 (ROMK1) = Kir1.1 (ROMK1) (Homo sapiens (Human), UniProt P48048); assay: ROMK Electrophysiology Assay (IonWorks Quattro whole cell voltage clamp); conditions: Chinese hamster ovary cells stably expressing Kir1.1; block at voltage step to 0 mV, 6 min compound incubation
Experimental: (§1) Several assays may be used to measure functional inhibition of the ROMK channel by compounds of the instant invention. One primary assay that can be used is a functional ^86Rb^+ efflux assay that measures the ability of ROMK to permeate ^86Rb^+, in the absence or presence of test compound. Under control conditions, cells loaded with ^86Rb^+ and incubated in Rb^+-free medium display a time-dependent efflux of the isotope, the rate of which depends on number of functional channels. […] This assay has been established with cell lines expressing either human, rat or dog ROMK channels, and can operate in 96- or 384-well format. Importantly, the human, rat, and dog ^86Rb^+ efflux assays can be carried out in the presence of up to 100% serum allowing, therefore, an accurate estimation of the effect of protein binding on the inhibitory activity of compounds of interest. Another ROMK functional assay makes use of the ability of thallium to permeate through open ROMK channels and increase the fluorescence of a dye previously loaded into the cells. Under control conditions, cells loaded with dye and exposed to thallium-containing medium display a time-dependent increase in fluorescence, the rate of which depends on number of functional channels. When cells are incubated in the presence of a channel inhibitor, the increase in fluorescence is attenuated in a concentration-dependent manner, and IC50 values of inhibition by compounds can be accurately determined. This assay has been established with cell lines expressing either human, or rat ROMK channels, and operates in 384-well format. Another assay for evaluation of the compounds of the instant invention and for evaluation of mechanism of action of compounds of Formula I relies on the measurement of the electrical current that is generated as potassium permeates through the channel. For these electrophysiological experiments, three different platforms, IonWorks, QPatch, or manual patch clamp, are used, depending on the experimental protocol under consideration. IonWorks operates in a 384-well format and allows accurate determination of IC50 values for inhibitors.
Chinese hamster ovary cells stably expressing Kir1.1 channels were maintained in T-75 flasks in cell culture media in a humidified 10% CO2 incubator at 37° C. Prior to an experiment, Kir1.1 expression was induced by overnight incubation with 1 mM sodium butyrate. […] After centrifugation, the cell pellet was resuspended in approximately 4.0 ml of bath solution and placed in the IonWorks instrument. The intracellular solution consisted of (in mM): 80 K gluconate, 40 KCl, 20 KF, 3.2 MgCl2, 3 EGTA, 5 Hepes, pH 7.4. […] Current amplitudes were measured using the IonWorks software.

hROMK (hKir1.1) = hROMK (hKir1.1) (Homo sapiens (Human), UniProt P48048); assay: Thallium Flux Assay; conditions: HEK293 cells stably expressing hROMK; FLIPR-Tetra, 30 min incubation
Experimental: as §1
To dislodge the cell, gently bang the side of the flask with your hand. […] Centrifuge at 1,500 rpm for 6 min followed by resuspension in complete growth media and determine cell concentration. […] Under ideal growth conditions and appropriate tissue culture practices, this cell line is stable for 40-45 passages.
FluxOR Kit Components (Invitrogen F10017)
• FluxOR™ Reagent (Component A) • FluxOR™ Assay Buffer (Component B)—10× Concentrate • PowerLoad™ Concentrate (Component C)—100× Concentrate • Probenecid (Component D)—Lyophilized sample is kept at −20° C. Water soluble, 100× after solubilization in 1 ml water. […] Store at 4° C. • Thallium sulfate (Tl2SO4) Concentrate (Component G)—50 mM in water. […] Can be stored at room temperature • Stimulant Buffer (prepared at 5× final concentration in 1× FluxOR™ Chloride-Free Buffer): 7.5 mM Thallium sulfate and 0.75 mM Potassium sulfate (to give a final assay concentration of 3 mM Thallium/0.3 mM Potassium). Store at 4° C. when not in use. If kept sterile, this solution is good for months.

hROMK1 (Kir1.1) = hROMK1 (Kir1.1) (Homo sapiens (Human), UniProt P48048); assay: 86Rb+ Efflux Assay; conditions: CHO-DHFR- cells stably expressing hROMK1; 35 min incubation
Experimental: as §1

Sequence of hROMK (hKir1.1) (P48048 whole entry): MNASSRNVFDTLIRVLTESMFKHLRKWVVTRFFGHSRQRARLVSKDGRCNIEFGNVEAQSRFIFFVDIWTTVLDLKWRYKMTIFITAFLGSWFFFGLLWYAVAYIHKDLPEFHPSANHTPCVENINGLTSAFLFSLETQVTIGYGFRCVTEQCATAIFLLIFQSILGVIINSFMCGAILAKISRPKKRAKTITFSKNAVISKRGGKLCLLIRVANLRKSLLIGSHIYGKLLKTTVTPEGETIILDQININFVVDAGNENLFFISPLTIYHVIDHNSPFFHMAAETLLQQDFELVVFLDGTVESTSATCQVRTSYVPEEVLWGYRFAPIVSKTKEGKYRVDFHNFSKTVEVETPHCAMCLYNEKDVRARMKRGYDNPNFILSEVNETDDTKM
Sequence of hROMK1 (Kir1.1) (P48048 whole entry): as above
Sequence of Kir1.1 (ROMK1) (P48048 whole entry, species assumed): as the sequence (P48048 whole entry) above

| Structure (SMILES) | IC50 (Kir1.1 (ROMK1)) [nM] | IC50 (hROMK (hKir1.1)) [nM] | IC50 (hROMK1 (Kir1.1)) [nM] |
| --- | --- | --- | --- |
| Cc1c(C(O)CN2CCN(CC3CCc4c3ccc3c4COC3=O)CC2)ccc2c1COC2=O (centres unmarked) [Example 20, 6-({4-[2-hydroxy-2-(4-methyl-1-oxo-1,3-dihydro-2-benzofuran-5-yl)ethyl]piperazin-1-yl}methyl)-1,6,7,8-tetrahydro-3H-indeno[4,5-c]furan-3-one] | 14 | 7 | 36 |
| COc1cc(C(O)CN2CCN(CCc3ccc4c(c3C)COC4=O)CC2)c(F)cc1C#N (centres unmarked) [Example 24, 5-fluoro-4-(1-hydroxy-2-{4-[2-(4-methyl-1-oxo-1,3-dihydro-2-benzofuran-5-yl)ethyl]piperazin-1-yl}ethyl)-2-(methyloxy)benzonitrile] |  | 26 | 130 |
| O=C1OCc2c1ccc(C(O)CN1CCN(CC(O)c3ccc4c(c3Cl)COC4=O)CC1)c2Cl (centres unmarked) [Example 5] | 7 | 13 | 88 |
| Cc1c(CCN2CCN(CC(O)c3ccc4c(c3C)COC4=O)CC2)ccc2c1COC2=O (centres unmarked) [Example 12, 5-(1-hydroxy-2-{4-[2-(4-methyl-1-oxo-1,3-dihydro-2-benzofuran-5-yl)ethyl]piperazine-1-yl}ethyl)-4-methyl-2-benzofuran-1(3H)-one] | 13 | 6 | 46 |
| Cc1c(C(O)CN2CCN(CC3CCc4c3ccc(F)c4C#N)CC2)ccc2c1COC2=O (centres unmarked) [Example 55, 5-fluoro-1-({4-[2-hydroxy-2-(4-methyl-1-oxo-1,3-dihydro-2-benzofuran-5-yl)ethyl]piperazin-1-yl}methyl)-2,3-dihydro-1H-indene-4-carbonitrile] | 23 | 15 | 47 |

From US9018211B2, “Inhibitors of the renal outer medullary potassium channel” (Merck Sharp & Dohme Corp., priority 2009, dated 2015)
